# In publication PMC5218480 (PLoS ONE, 2017):
# Tested on: MV-4-11 cells
# Assay: Gene expression microarray analysis (Affymetrix PrimeView) and GSEA
# Assay type: cell-based, human
# Set-up: RFU PODN (11730768_x_at) / Fold change /veh PODN (11730768_x_at) / RFU LINC00158 (11744669_a_at) / Fold change /veh LINC00158 (11744669_a_at) / RFU DUSP10 (11751237_a_at) / Fold change /veh DUSP10 (11751237_a_at) / RFU ID3 (11757404_x_at) / Fold change /veh ID3 (11757404_x_at) / RFU PLEKHG5 (11737974_s_at) / Fold change /veh PLEKHG5 (11737974_s_at) / RFU LRRC4B (11730491_at) / Fold change /veh LRRC4B (11730491_at) / RFU GIMAP4 (11747438_a_at) / Fold change /veh GIMAP4 (11747438_a_at) / RFU KRT8 (11758183_x_at) / Fold change /veh KRT8 (11758183_x_at) / RFU CNN1 (11734310_a_at) / Fold change /veh CNN1 (11734310_a_at) / RFU VPS37D (11726825_at) / Fold change /veh VPS37D (11726825_at) / RFU C10orf10 (11716522_x_at) / Fold change /veh C10orf10 (11716522_x_at) / RFU KIR2DL2 /// KIR2DL4 /// KIR2DL5A /// KIR2DL5B /// KIR2DS1 /// KIR2DS2 /// KIR2DS3 /// KIR2DS4 /// KIR3DL3 /// KIR3DL3 /// KIR3DS1 (11738374_at) / Fold change /veh KIR2DL2 /// KIR2DL4 /// KIR2DL5A /// KIR2DL5B /// KIR2DS1 /// KIR2DS2 /// KIR2DS3 /// KIR2DS4 /// KIR3DL3 /// KIR3DL3 /// KIR3DS1 (11738374_at) / RFU C1QL1 (11718748_at) / Fold change /veh C1QL1 (11718748_at) / RFU TMPRSS4 (11747572_a_at) / Fold change /veh TMPRSS4 (11747572_a_at) / RFU HAMP (11756126_x_at) / Fold change /veh HAMP (11756126_x_at) / RFU RNFT2 (11725882_a_at) / Fold change /veh RNFT2 (11725882_a_at) / RFU NR4A2 (11747474_a_at) / Fold change /veh NR4A2 (11747474_a_at) / RFU ABCC12 (11746883_a_at) / Fold change /veh ABCC12 (11746883_a_at) / RFU TMEM136 (11760407_x_at) / Fold change /veh TMEM136 (11760407_x_at) / RFU CLDN22 /// WWC2 (11732394_at) / Fold change /veh CLDN22 /// WWC2 (11732394_at) / RFU HLA-DPB1 (11760878_x_at) / Fold change /veh HLA-DPB1 (11760878_x_at) / RFU SPINT1 (11716480_a_at) / Fold change /veh SPINT1 (11716480_a_at) / RFU GAP43 (11754022_s_at) / Fold change /veh GAP43 (11754022_s_at) / RFU A4GNT (11735810_at) / Fold change /veh A4GNT (11735810_at) / RFU PRB3 (11715151_x_at) / Fold change /veh PRB3 (11715151_x_at) / RFU TUBB4B (11761932_at) / Fold change /veh TUBB4B (11761932_at) / RFU CAPN14 (11732068_a_at) / Fold change /veh CAPN14 (11732068_a_at) / RFU TMCC2 (11721928_a_at) / Fold change /veh TMCC2 (11721928_a_at) / RFU IRGQ (11745062_a_at) / Fold change /veh IRGQ (11745062_a_at) / RFU FAM174B (11720279_a_at) / Fold change /veh FAM174B (11720279_a_at) / RFU TMPRSS4 (11748680_a_at) / Fold change /veh TMPRSS4 (11748680_a_at) / RFU FAM212B (11763350_a_at) / Fold change /veh FAM212B (11763350_a_at) / RFU PLEKHG5 (11743358_a_at) / Fold change /veh PLEKHG5 (11743358_a_at) / RFU ZSCAN30 (11745921_a_at) / Fold change /veh ZSCAN30 (11745921_a_at) / RFU CMKLR1 (11741424_a_at) / Fold change /veh CMKLR1 (11741424_a_at) / RFU LOC101060620 /// MAPK8IP1 (11723275_at) / Fold change /veh LOC101060620 /// MAPK8IP1 (11723275_at) / RFU SPTSSB (11747773_x_at) / Fold change /veh SPTSSB (11747773_x_at) / RFU PRSS12 (11739890_at) / Fold change /veh PRSS12 (11739890_at) / RFU BIN1 (11741810_x_at) / Fold change /veh BIN1 (11741810_x_at) / RFU WNT11 (11732464_a_at) / Fold change /veh WNT11 (11732464_a_at) / RFU C10orf10 (11716521_a_at) / Fold change /veh C10orf10 (11716521_a_at) / RFU C5orf56 (11738089_at) / Fold change /veh C5orf56 (11738089_at) / RFU CYB561 (11721691_x_at) / Fold change /veh CYB561 (11721691_x_at) / RFU ANKRD19P (11752326_a_at) / Fold change /veh ANKRD19P (11752326_a_at) / RFU OR2T12 /// OR2T33 /// OR2T8 (11738714_s_at) / Fold change /veh OR2T12 /// OR2T33 /// OR2T8 (11738714_s_at) / RFU VCAN (11748164_a_at) / Fold change /veh VCAN (11748164_a_at) / RFU JSRP1 (11732532_at) / Fold change /veh JSRP1 (11732532_at) / RFU KRTAP10-11 (11738290_x_at) / Fold change /veh KRTAP10-11 (11738290_x_at) / RFU MYO3A (11730013_a_at) / Fold change /veh MYO3A (11730013_a_at) / RFU EBF3 (11725865_a_at) / Fold change /veh EBF3 (11725865_a_at) / RFU CAMK2N1 (11719241_x_at) / Fold change /veh CAMK2N1 (11719241_x_at) / RFU C5orf56 (11738088_a_at) / Fold change /veh C5orf56 (11738088_a_at) / RFU OLFML3 (11715873_a_at) / Fold change /veh OLFML3 (11715873_a_at) / RFU LOC100653217 /// NTM (11731650_a_at) / Fold change /veh LOC100653217 /// NTM (11731650_a_at) / RFU MAPK11 (11762145_a_at) / Fold change /veh MAPK11 (11762145_a_at) / RFU FIZ1 (11724087_x_at) / Fold change /veh FIZ1 (11724087_x_at) / RFU OASL (11726364_x_at) / Fold change /veh OASL (11726364_x_at) / RFU SOX15 (11748057_x_at) / Fold change /veh SOX15 (11748057_x_at) / RFU CD79A (11719716_a_at) / Fold change /veh CD79A (11719716_a_at) / RFU HIST1H1D (11736915_at) / Fold change /veh HIST1H1D (11736915_at) / RFU CASKIN2 (11723855_a_at) / Fold change /veh CASKIN2 (11723855_a_at) / RFU LOC730098 (11760151_x_at) / Fold change /veh LOC730098 (11760151_x_at) / RFU OR4N2 (11742367_at) / Fold change /veh OR4N2 (11742367_at) / RFU PRRT2 (11749266_a_at) / Fold change /veh PRRT2 (11749266_a_at) / RFU SNX32 (11753110_a_at) / Fold change /veh SNX32 (11753110_a_at) / RFU CDHR5 (11726645_a_at) / Fold change /veh CDHR5 (11726645_a_at) / RFU RCAN1 (11760418_a_at) / Fold change /veh RCAN1 (11760418_a_at) / RFU FAM167A (11723789_a_at) / Fold change /veh FAM167A (11723789_a_at) / RFU FAM26E (11764081_at) / Fold change /veh FAM26E (11764081_at) / RFU ISYNA1 (11749810_s_at) / Fold change /veh ISYNA1 (11749810_s_at) / RFU ACY1 (11761880_at) / Fold change /veh ACY1 (11761880_at) / RFU 11764098_at / Fold change /veh 11764098_at / RFU SAMD14 (11745864_x_at) / Fold change /veh SAMD14 (11745864_x_at) / RFU NPB (11741838_a_at) / Fold change /veh NPB (11741838_a_at) / RFU TMPRSS6 (11731388_a_at) / Fold change /veh TMPRSS6 (11731388_a_at) / RFU KRTAP10-2 (11738614_at) / Fold change /veh KRTAP10-2 (11738614_at) / RFU ARHGAP8 /// PRR5-ARHGAP8 (11727945_x_at) / Fold change /veh ARHGAP8 /// PRR5-ARHGAP8 (11727945_x_at) / RFU KRTAP5-7 /// NADSYN1 (11734609_at) / Fold change /veh KRTAP5-7 /// NADSYN1 (11734609_at) / RFU RASL12 (11751679_a_at) / Fold change /veh RASL12 (11751679_a_at) / RFU CDKN2B (11736163_a_at) / Fold change /veh CDKN2B (11736163_a_at) / RFU PRF1 (11729649_at) / Fold change /veh PRF1 (11729649_at) / RFU, ZNF638 /// ZNF638-IT1 / Fold change vs veh, ZNF638 /// ZNF638-IT1 / RFU, PANK3 / Fold change vs veh, PANK3 / RFU, SH3YL1 / Fold change vs veh, SH3YL1 / RFU, ZEB2 / Fold change vs veh, ZEB2 / RFU, NRIP1 / Fold change vs veh, NRIP1 / RFU, PTTG1IP / Fold change vs veh, PTTG1IP / RFU, CAPN2 / Fold change vs veh, CAPN2 / RFU, MED14 / Fold change vs veh, MED14 / RFU, SNORA58 / Fold change vs veh, SNORA58 / RFU, C1orf63 / Fold change vs veh, C1orf63 / RFU, LRRFIP1 / Fold change vs veh, LRRFIP1 / RFU, NDUFAF7 / Fold change vs veh, NDUFAF7 / RFU, SLC12A2 / Fold change vs veh, SLC12A2 / RFU, IBTK / Fold change vs veh, IBTK / RFU, ESF1 / Fold change vs veh, ESF1 / Fold change vs veh, TMEM50B / RFU, TAOK1 / Fold change vs veh, TAOK1 / RFU, ACBD3 / Fold change vs veh, ACBD3 / RFU, TMA16 / Fold change vs veh, TMA16 / RFU, RWDD3 / Fold change vs veh, RWDD3 / RFU, BCAT1 / Fold change vs veh, BCAT1 / RFU, EDEM3 / Fold change vs veh, EDEM3 / RFU, TMEM33 / Fold change vs veh, TMEM33 / RFU, WDR75 / Fold change vs veh, WDR75 / RFU, AHCTF1 / Fold change vs veh, AHCTF1 / RFU, TFRC / Fold change vs veh, TFRC / RFU, ZDHHC17 / Fold change vs veh, ZDHHC17 / RFU, NOM1 / Fold change vs veh, NOM1 / RFU, ARL8B / Fold change vs veh, ARL8B / RFU, ZBTB11 / Fold change vs veh, ZBTB11 / RFU, TAMM41 / Fold change vs veh, TAMM41 / RFU, KIAA1704 /// LOC100996395 / Fold change vs veh, KIAA1704 /// LOC100996395 / RFU, ING1 / Fold change vs veh, ING1 / RFU, TRMT61B / Fold change vs veh, TRMT61B / RFU, FUBP3 / Fold change vs veh, FUBP3 / RFU, TP53 / Fold change vs veh, TP53 / RFU, TNKS2 / Fold change vs veh, TNKS2 / RFU, ZFP14 / Fold change vs veh, ZFP14 / RFU, ACTR2 / Fold change vs veh, ACTR2 / RFU, PPP3R1 / Fold change vs veh, PPP3R1 / RFU, PIK3R1 / Fold change vs veh, PIK3R1 / RFU, HNRNPA1 / Fold change vs veh, HNRNPA1 / RFU, RNF170 / Fold change vs veh, RNF170 / RFU, ZNF28 / Fold change vs veh, ZNF28 / RFU, RNGTT / Fold change vs veh, RNGTT / RFU, OGT / Fold change vs veh, OGT / RFU, BRD1 / Fold change vs veh, BRD1 / RFU, MARS / Fold change vs veh, MARS / RFU, ZNF655 / Fold change vs veh, ZNF655 / RFU, FAHD1 / Fold change vs veh, FAHD1 / RFU, BDP1 / Fold change vs veh, BDP1 / RFU, LRRCC1 / Fold change vs veh, LRRCC1 / RFU, ARID1A / Fold change vs veh, ARID1A / RFU, ZNF146 / Fold change vs veh, ZNF146 / RFU, ZNF330 / Fold change vs veh, ZNF330 / RFU, GPN3 / Fold change vs veh, GPN3 / RFU, C9orf123 / Fold change vs veh, C9orf123 / RFU, N4BP2L2 / Fold change vs veh, N4BP2L2 / RFU, ARFIP1 / Fold change vs veh, ARFIP1 / RFU, FAM179B / Fold change vs veh, FAM179B / RFU, BCL10 / Fold change vs veh, BCL10 / RFU, UHRF1BP1L / Fold change vs veh, UHRF1BP1L / RFU, BET1 / Fold change vs veh, BET1 / RFU, CNOT2 / Fold change vs veh, CNOT2 / RFU, ZNF268 / Fold change vs veh, ZNF268 / Fold change vs veh, ZNF507 / RFU, DGCR2 / Fold change vs veh, DGCR2 / RFU, WDSUB1 / Fold change vs veh, WDSUB1 / Fold change vs veh, HSP90B1 /// MIR3652 / RFU, ADSS / Fold change vs veh, ADSS / RFU, GK / Fold change vs veh, GK / RFU, ZNF148 / Fold change vs veh, ZNF148 / RFU, TAF9 / Fold change vs veh, TAF9 / RFU, SLC1A5 / Fold change vs veh, SLC1A5 / RFU, SLMO2 / Fold change vs veh, SLMO2 / RFU, ABCC4 / Fold change vs veh, ABCC4 / RFU, LOC101060439 /// RAP1B / Fold change vs veh, LOC101060439 /// RAP1B / RFU, RFX7 / Fold change vs veh, RFX7 / RFU, GTPBP10 / Fold change vs veh, GTPBP10 / RFU, CNEP1R1 / Fold change vs veh, CNEP1R1 / RFU, BIVM-ERCC5 /// ERCC5 / Fold change vs veh, BIVM-ERCC5 /// ERCC5 / RFU, ILF3 / Fold change vs veh, ILF3 / RFU 11762660_at / Fold change /veh 11762660_at / RFU VCAN (11757783_s_at) / Fold change /veh VCAN (11757783_s_at) / RFU DDX43 (11728927_at) / Fold change /veh DDX43 (11728927_at) / RFU KRT8 (11758188_x_at) / Fold change /veh KRT8 (11758188_x_at) / RFU NKD1 (11759106_at) / Fold change /veh NKD1 (11759106_at) / RFU SRD5A1 (11742802_a_at) / Fold change /veh SRD5A1 (11742802_a_at) / RFU TPSAB1 /// TPSB2 (11721975_s_at) / Fold change /veh TPSAB1 /// TPSB2 (11721975_s_at) / RFU GSTM3 (11746129_a_at) / Fold change /veh GSTM3 (11746129_a_at) / RFU IL23R (11737362_x_at) / Fold change /veh IL23R (11737362_x_at) / RFU TMEM51 (11727254_a_at) / Fold change /veh TMEM51 (11727254_a_at) / RFU PIWIL2 (11732686_x_at) / Fold change /veh PIWIL2 (11732686_x_at) / RFU ORM1 (11744905_x_at) / Fold change /veh ORM1 (11744905_x_at) / RFU CCDC152 (11743942_at) / Fold change /veh CCDC152 (11743942_at) / RFU ECM1 (11717891_a_at) / Fold change /veh ECM1 (11717891_a_at) / RFU IL23R (11748794_a_at) / Fold change /veh IL23R (11748794_a_at) / RFU TNFAIP8L3 (11732012_x_at) / Fold change /veh TNFAIP8L3 (11732012_x_at) / RFU MBOAT4 (11741988_at) / Fold change /veh MBOAT4 (11741988_at) / RFU 11764193_at / Fold change /veh 11764193_at / RFU TMEM53 (11763286_at) / Fold change /veh TMEM53 (11763286_at) / RFU MAGEB2 (11727129_at) / Fold change /veh MAGEB2 (11727129_at) / RFU TMEM200A (11744735_a_at) / Fold change /veh TMEM200A (11744735_a_at) / RFU CCDC152 (11751479_a_at) / Fold change /veh CCDC152 (11751479_a_at) / RFU FAM211A (11726209_a_at) / Fold change /veh FAM211A (11726209_a_at) / RFU RGS16 (11746705_a_at) / Fold change /veh RGS16 (11746705_a_at) / RFU VCAN (11755009_s_at) / Fold change /veh VCAN (11755009_s_at) / RFU RHOB (11743442_s_at) / Fold change /veh RHOB (11743442_s_at) / RFU RGS16 (11720943_a_at) / Fold change /veh RGS16 (11720943_a_at) / RFU RGS16 (11720944_at) / Fold change /veh RGS16 (11720944_at) / RFU, VPS4B / Fold change vs veh, VPS4B / RFU, CREB1 / Fold change vs veh, CREB1 / RFU, DNAJC13 / Fold change vs veh, DNAJC13 / RFU, GNAQ / Fold change vs veh, GNAQ / RFU, CDK5R1 / Fold change vs veh, CDK5R1 / RFU, ZRANB3 / Fold change vs veh, ZRANB3 / RFU, CUL4A / Fold change vs veh, CUL4A / RFU, CCNY / Fold change vs veh, CCNY / RFU, UFL1 / Fold change vs veh, UFL1 / RFU, COG3 / Fold change vs veh, COG3 / RFU, DIAPH2 / Fold change vs veh, DIAPH2 / RFU, SKA2 / Fold change vs veh, SKA2 / RFU, AFF3 / Fold change vs veh, AFF3 / RFU, LMF1 / Fold change vs veh, LMF1 / RFU, IPO11 / Fold change vs veh, IPO11 / RFU, DFFB / Fold change vs veh, DFFB / RFU, FOXP1 / Fold change vs veh, FOXP1 / RFU, CARD8 / Fold change vs veh, CARD8 / RFU, STRN3 / Fold change vs veh, STRN3 / RFU, ADK / Fold change vs veh, ADK / RFU, RASSF2 / Fold change vs veh, RASSF2 / RFU, WIPF1 / Fold change vs veh, WIPF1 / RFU, LARP1B / Fold change vs veh, LARP1B / RFU, RASA1 / Fold change vs veh, RASA1 / RFU, RB1 / Fold change vs veh, RB1 / RFU, PPFIA1 / Fold change vs veh, PPFIA1 / RFU, MAT2A / Fold change vs veh, MAT2A / RFU, CCT5 / Fold change vs veh, CCT5 / RFU, WDR92 / Fold change vs veh, WDR92 / RFU, CUX1 / Fold change vs veh, CUX1 / RFU, TTC7A / Fold change vs veh, TTC7A / RFU, TMEM135 / Fold change vs veh, TMEM135 / RFU, DEPTOR / Fold change vs veh, DEPTOR / RFU, CPM / Fold change vs veh, CPM / RFU, DNAJB6 / Fold change vs veh, DNAJB6 / RFU, CACNA2D3 / Fold change vs veh, CACNA2D3 / RFU, DTX4 / Fold change vs veh, DTX4 / RFU, TFCP2 / Fold change vs veh, TFCP2 / RFU, GMCL1 /// GMCL1P1 / Fold change vs veh, GMCL1 /// GMCL1P1 / RFU, AEBP2 / Fold change vs veh, AEBP2 / RFU, SNHG1 /// SNORD22 /// SNORD25 /// SNORD26 /// SNORD27 /// SNORD28 /// SNORD29 /// SNORD31 / Fold change vs veh, SNHG1 /// SNORD22 /// SNORD25 /// SNORD26 /// SNORD27 /// SNORD28 /// SNORD29 /// SNORD31 / Fold change (Aza/veh), C12orf56 (ProbeSet 11735607_a_at) / Fold change (ACY-1035/veh), C12orf56 (ProbeSet 11735607_a_at) / Fold change (Aza/veh), FGFR1OP (ProbeSet 11751329_s_at) / Fold change (ACY-1035/veh), FGFR1OP (ProbeSet 11751329_s_at) / Fold change (Aza/veh), VPS36 (ProbeSet 11739960_a_at) / Fold change (ACY-1035/veh), VPS36 (ProbeSet 11739960_a_at) / RFU SYPL1 (11715823_x_at) / Fold change /veh SYPL1 (11715823_x_at) / RFU IGFBP7 (11715501_s_at) / Fold change /veh IGFBP7 (11715501_s_at) / RFU REEP3 (11722064_at) / Fold change /veh REEP3 (11722064_at) / RFU IGLL1 (11728026_x_at) / Fold change /veh IGLL1 (11728026_x_at): dose or concentration left out as unconfirmed
# Conditions: MV-4-11 cells, 48 hours
structure (smiles),measurement,value
Nc1ccc(-c2cccs2)cc1NC(=O)c1ccc2c(c1)cc(C1CC1)n2CCN1CCOCC1 [ACY-1035],Fold change /veh HLA-DPB1 (11760878_x_at),1.16
